Assay results taken from patent publication EP4501917A1, “3,4-DIHYDROQUINOXALINE-2-CARBOXIMIDE DERIVATIVE COMPOUND AND PHARMACEUTICAL COMPOSITION COMPRISING SAME FOR PREVENTING OR TREATING CANCER DISEASE” (Daegu-Gyeongbuk Medical Innovation Foundation, priority 2022, dated 2023).

Columns and labels:
HDAC10 = biological target: T1, HDAC10 (Homo sapiens, UniProt Q969S8); assay: Selective HDAC inhibition, HDAC Fluorogenic assay kit; conditions: final concentration 10 µM; HDAC substrate 3 200 µM; positive control (1% DMSO) set to 100
T1 sequence (Q969S8 1-669): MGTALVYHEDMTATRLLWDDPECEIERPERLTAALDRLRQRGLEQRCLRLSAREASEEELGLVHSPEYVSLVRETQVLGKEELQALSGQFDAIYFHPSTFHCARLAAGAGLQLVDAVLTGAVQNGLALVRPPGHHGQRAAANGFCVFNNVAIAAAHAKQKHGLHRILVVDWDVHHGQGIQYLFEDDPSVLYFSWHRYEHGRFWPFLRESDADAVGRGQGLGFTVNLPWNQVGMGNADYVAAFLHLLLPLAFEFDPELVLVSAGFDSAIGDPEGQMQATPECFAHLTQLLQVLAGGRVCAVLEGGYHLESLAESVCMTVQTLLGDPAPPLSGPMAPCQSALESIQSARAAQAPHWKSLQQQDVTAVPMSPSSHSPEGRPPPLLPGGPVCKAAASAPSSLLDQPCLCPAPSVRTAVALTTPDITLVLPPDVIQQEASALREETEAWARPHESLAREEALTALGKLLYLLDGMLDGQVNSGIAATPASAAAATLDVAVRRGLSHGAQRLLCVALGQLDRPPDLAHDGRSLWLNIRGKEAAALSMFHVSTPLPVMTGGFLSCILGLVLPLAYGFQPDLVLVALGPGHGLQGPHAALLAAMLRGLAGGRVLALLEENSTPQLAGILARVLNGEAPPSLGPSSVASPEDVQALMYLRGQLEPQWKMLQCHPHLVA
Experimental: (§1) For analysis, HDAC substrate 3 was diluted in buffer to a concentration of 200 µM and used in HDAC 1, 2, 3, 6, and 10 assays, HDAC substrate 2A was diluted in buffer to a concentration of 200 µM and used in HDAC 4, 7, 9, and 11 assays, HDAC substrate 2A was diluted in buffer to a concentration of 20 µM and used in HDAC 8 assays. For the HDAC 11 assay, a dedicated buffer included in the kit was used separately, and the same buffer was used for the remaining assays. The compound of the Example was diluted to 1 mM (1% DMSO concentration) using DMSO to obtain a final concentration of 10 µM, and prepared by diluting 1/10 with assay buffer. In a 96-well black round-bottom plate, 5 µL of the diluted compound of the Example, 5 µL of the diluted HDAC substrate, 5 µL of BSA (1 mg/ml), 5 µL of the HDAC enzyme diluted to the appropriate concentration, and 30 µL of assay buffer were added, and the enzyme reaction was performed at 37°C for 30 minutes. […] Afterwards, 50 µL of 2X HDAC developer was added to each well. After reacting for 15 minutes at room temperature, the fluorescence values at excitation wavelengths of 350-380 nm and emission wavelengths of 440-460 nm were measured using a microplate reader (Synergy Neo).

HDAC4 = HDAC4 (Homo sapiens, UniProt P56524); assay: as above; conditions: read-out: HDAC4 enzyme activity (%)
Experimental: as §1

HDAC9 = HDAC9 (Homo sapiens, UniProt Q9UKV0); assay: as above; conditions: read-out: HDAC9 enzyme activity (%)
Experimental: as §1

HDAC1 = HDAC1 (Homo sapiens, UniProt Q13547); assay: as above; conditions: final concentration 10 µM; HDAC substrate 3 200 µM; positive control (1% DMSO) set to 100
Experimental: as §1

HDAC2 = HDAC2 (Homo sapiens, UniProt Q92769); assay: as above; conditions: final concentration 10 µM; HDAC substrate 3 200 µM; positive control (1% DMSO) set to 100
Experimental: as §1

HDAC8 [1] = biological target: T2, HDAC8 (Homo sapiens, UniProt Q9BY41); assay: HDAC8 inhibitory activity analysis (in vitro), RFU analysis, HDAC Fluorogenic assay kit; type: biochemical; conditions: compound final concentration 10 µM; HDAC substrate 2A 20 µM; positive control (1% DMSO) set to 100, lower = more inhibition
T2 construct: purchased BPS bioscience
T2 sequence (Q9BY41 1-377): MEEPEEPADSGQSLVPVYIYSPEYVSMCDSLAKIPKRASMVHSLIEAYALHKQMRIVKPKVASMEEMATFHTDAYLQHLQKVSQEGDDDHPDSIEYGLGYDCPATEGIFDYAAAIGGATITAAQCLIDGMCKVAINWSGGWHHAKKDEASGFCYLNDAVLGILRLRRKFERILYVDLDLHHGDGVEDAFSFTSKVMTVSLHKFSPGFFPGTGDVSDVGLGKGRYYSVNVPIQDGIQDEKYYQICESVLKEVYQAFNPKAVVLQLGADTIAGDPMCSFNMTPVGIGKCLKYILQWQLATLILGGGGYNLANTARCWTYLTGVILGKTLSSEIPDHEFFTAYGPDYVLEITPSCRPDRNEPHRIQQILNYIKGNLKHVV
Experimental: The compound of the Example was diluted to 1 mM (1% DMSO concentration) using DMSO to obtain a final concentration of 10 µM, and prepared by diluting 1/10 with assay buffer. In a 96-well black round-bottom plate, 5 µL of the diluted compound of the Example, 5 µL of the diluted HDAC substrate 2A, 5 µL of BSA (1 mg/mL), 5 µL of the HDAC8 enzyme diluted to an appropriate concentration, and 30 µL of assay buffer were added, and the enzyme reaction was performed at 37°C for 30 minutes. […] Afterwards, 50 µL of 2X HDAC developer was added to each well. After reacting for 15 minutes at room temperature, the fluorescence values at excitation wavelengths of 350-380 nm and emission wavelengths of 440-460 nm were measured using a microplate reader (Synergy Neo).

HDAC6 = biological target: T3, HDAC6 (Homo sapiens, UniProt Q9UBN7); assay: Selective HDAC inhibition, HDAC Fluorogenic assay kit; conditions: final concentration 10 µM; HDAC substrate 3 200 µM; positive control (1% DMSO) set to 100
T3 sequence (Q9UBN7 1-1215): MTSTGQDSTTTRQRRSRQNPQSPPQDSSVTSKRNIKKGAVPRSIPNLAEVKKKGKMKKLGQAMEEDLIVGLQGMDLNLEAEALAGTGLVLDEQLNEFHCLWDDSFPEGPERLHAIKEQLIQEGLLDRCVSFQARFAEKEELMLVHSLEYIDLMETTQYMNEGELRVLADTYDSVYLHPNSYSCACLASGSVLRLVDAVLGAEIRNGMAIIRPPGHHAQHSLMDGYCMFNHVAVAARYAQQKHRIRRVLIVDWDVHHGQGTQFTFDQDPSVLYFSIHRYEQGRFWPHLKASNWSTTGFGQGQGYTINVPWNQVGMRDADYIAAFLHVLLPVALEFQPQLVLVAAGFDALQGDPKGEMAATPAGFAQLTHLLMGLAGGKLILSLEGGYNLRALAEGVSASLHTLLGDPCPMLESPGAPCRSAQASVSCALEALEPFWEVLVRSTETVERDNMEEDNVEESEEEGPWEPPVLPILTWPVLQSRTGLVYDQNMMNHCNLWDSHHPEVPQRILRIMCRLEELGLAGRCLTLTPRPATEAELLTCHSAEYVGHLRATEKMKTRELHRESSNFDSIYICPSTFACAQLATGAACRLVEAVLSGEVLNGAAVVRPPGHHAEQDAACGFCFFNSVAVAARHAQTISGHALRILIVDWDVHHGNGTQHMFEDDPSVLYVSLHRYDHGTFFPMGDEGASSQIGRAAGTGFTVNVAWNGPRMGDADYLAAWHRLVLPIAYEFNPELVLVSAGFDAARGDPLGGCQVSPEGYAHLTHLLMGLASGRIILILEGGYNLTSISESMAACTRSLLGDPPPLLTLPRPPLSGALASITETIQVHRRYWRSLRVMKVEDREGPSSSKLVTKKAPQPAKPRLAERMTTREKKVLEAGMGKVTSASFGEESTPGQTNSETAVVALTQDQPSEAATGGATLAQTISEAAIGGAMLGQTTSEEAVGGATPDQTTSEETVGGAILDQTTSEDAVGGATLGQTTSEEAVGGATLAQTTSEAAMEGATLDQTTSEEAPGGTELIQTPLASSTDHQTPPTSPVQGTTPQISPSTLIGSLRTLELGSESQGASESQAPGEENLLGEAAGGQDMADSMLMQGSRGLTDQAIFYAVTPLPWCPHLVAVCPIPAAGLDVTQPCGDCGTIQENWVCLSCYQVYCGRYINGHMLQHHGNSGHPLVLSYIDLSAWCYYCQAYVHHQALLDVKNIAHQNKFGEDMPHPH
Experimental: as §1

HDAC8 [2] = biological target: T2, HDAC8; assay: as above; type: biochemical; conditions: final concentration 10 µM; HDAC substrate 2A 20 µM; positive control (1% DMSO) set to 100; read-out: HDAC8 enzyme activity (%)
Experimental: as §1

HDAC11 = biological target: T4, HDAC11 (Homo sapiens, UniProt Q96DB2); assay: as above; conditions: read-out: HDAC11 enzyme activity (%)
T4 sequence (Q96DB2 1-347): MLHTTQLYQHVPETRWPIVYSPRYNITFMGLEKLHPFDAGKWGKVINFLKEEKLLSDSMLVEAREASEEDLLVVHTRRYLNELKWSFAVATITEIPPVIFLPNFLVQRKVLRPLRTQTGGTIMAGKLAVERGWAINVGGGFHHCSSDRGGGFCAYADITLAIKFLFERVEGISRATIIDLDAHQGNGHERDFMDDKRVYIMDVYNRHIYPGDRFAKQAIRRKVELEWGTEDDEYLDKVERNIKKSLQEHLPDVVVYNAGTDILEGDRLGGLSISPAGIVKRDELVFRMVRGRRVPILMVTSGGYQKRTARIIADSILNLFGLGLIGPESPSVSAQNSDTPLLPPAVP
Experimental: as §1

HDAC1, sequence (Q13547 whole entry): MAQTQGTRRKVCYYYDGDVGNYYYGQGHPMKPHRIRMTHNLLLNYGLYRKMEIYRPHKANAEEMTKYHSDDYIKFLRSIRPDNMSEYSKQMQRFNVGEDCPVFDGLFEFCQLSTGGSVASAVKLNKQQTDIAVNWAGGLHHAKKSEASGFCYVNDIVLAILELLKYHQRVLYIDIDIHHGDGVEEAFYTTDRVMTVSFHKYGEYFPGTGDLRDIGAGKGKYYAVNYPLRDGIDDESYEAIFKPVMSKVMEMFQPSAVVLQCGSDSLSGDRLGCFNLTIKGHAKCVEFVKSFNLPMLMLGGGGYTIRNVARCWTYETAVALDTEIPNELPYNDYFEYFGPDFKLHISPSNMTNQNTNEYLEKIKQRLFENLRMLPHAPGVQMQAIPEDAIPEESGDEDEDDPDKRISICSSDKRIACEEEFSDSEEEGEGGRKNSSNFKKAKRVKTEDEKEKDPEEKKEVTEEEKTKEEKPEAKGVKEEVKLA
HDAC4, sequence (P56524 whole entry): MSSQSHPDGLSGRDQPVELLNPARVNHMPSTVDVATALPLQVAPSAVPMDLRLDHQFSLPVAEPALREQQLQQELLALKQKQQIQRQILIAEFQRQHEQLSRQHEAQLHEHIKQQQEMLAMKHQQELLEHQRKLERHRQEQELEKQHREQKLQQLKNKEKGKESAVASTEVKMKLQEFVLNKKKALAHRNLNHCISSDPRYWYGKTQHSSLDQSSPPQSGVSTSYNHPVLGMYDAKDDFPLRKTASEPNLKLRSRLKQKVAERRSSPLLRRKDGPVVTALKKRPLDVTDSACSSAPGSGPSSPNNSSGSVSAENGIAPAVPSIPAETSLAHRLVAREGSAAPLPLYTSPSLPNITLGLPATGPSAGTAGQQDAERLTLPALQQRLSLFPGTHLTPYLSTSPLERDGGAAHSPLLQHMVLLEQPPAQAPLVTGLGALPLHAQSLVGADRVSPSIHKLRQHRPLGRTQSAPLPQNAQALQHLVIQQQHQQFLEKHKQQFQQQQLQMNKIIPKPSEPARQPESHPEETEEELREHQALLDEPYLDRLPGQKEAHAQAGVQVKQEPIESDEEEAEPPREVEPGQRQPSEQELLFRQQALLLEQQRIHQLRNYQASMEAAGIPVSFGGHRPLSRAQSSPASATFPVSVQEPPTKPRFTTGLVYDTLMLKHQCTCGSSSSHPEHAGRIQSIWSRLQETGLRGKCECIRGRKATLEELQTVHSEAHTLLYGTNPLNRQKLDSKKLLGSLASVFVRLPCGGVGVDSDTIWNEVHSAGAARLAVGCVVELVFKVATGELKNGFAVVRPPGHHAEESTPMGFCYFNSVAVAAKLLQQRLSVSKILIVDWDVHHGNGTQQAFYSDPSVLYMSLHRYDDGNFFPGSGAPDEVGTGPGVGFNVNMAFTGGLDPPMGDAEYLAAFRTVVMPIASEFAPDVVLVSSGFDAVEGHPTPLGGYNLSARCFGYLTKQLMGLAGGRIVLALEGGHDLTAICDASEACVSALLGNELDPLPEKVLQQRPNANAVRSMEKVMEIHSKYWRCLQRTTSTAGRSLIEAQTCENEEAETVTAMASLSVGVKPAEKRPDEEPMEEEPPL
HDAC2, sequence (Q92769 whole entry): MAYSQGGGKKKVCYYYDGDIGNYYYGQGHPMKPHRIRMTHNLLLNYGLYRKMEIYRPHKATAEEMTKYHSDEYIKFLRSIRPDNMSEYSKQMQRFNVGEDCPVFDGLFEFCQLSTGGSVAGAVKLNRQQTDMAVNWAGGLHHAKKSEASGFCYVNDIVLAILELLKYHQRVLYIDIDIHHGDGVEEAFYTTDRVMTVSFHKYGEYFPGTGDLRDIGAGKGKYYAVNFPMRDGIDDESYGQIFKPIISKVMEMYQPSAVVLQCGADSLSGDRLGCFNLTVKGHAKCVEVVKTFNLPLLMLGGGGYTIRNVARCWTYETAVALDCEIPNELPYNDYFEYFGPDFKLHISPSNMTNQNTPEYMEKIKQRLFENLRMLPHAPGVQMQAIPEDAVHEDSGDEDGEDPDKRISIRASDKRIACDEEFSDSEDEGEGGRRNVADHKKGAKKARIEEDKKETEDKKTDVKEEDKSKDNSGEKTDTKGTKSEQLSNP
HDAC9, sequence (Q9UKV0 whole entry): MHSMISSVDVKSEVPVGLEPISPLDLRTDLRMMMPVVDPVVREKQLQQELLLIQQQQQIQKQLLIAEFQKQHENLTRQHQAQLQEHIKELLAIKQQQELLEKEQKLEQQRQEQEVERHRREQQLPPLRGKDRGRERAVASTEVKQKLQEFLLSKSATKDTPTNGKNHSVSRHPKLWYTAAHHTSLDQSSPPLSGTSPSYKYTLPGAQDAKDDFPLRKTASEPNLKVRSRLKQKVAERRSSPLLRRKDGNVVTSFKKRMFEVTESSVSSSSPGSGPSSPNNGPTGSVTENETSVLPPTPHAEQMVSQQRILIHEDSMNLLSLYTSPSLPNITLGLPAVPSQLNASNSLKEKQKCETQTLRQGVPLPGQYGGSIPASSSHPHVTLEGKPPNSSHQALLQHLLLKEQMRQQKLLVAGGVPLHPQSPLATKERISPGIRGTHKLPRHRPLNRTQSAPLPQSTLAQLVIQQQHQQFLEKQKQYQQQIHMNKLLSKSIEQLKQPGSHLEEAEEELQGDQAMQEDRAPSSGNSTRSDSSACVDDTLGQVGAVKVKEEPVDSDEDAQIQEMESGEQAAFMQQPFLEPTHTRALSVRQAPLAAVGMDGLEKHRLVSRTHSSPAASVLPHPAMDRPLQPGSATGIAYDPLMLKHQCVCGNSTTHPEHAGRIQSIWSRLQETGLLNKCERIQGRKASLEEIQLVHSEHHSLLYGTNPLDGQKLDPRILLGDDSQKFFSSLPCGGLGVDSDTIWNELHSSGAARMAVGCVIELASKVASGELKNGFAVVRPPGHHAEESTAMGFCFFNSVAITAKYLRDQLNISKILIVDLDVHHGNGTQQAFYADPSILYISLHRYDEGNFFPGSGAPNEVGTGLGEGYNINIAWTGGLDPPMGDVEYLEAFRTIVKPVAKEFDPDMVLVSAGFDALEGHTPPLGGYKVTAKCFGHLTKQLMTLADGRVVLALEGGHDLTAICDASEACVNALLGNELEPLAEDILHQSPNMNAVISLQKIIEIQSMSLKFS

## CC(/C=C/C(=O)NO)=C\[C@@H](C)C(=O)c1ccc(N(C)C)cc1 [TSA, Trichostatin A, reference compound]
HDAC10
  HDAC10 enzyme activity (%): 1.21%
HDAC4
  remaining activity at 10 µM: 18.8%
HDAC9
  remaining activity at 10 µM: 21.5%
HDAC1
  HDAC1 enzyme activity (%): 1.22%
HDAC2
  HDAC2 enzyme activity (%): 0.70%
HDAC8 [1]
  RFU (%): 13.83%
HDAC6
  HDAC6 enzyme activity (%): 1.11%
HDAC8 [2]
  remaining activity at 10 µM: 11.1%
HDAC11
  remaining activity at 10 µM: 59.1%
